Laboratory results published in ChEMBL document CHEMBL1201862, “PubChem BioAssay data set” (2004).
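Values below derive from 48-hour exposures of cells grown in 96-well plates, with endpoints linearly interpolated between the two concentrations bracketing the appropriate inhibition level. GI50 = concentration required for 50% inhibition of growth.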 Calls of active or inactive are those of the source. No stated cut-off is given here; in the data, active = GI50 up to about 1.1 µM and inactive = higher.

Key:
Experiment in all cases: NCI anticancer screen, dose series, 48 h
K562 = tested on: K562
786-0 = tested on: 786-0
SF-268 = tested on: SF-268
SF-295 = tested on: SF-295
SNB-19 = tested on: SNB-19
MDA-N = tested on: MDA-N
NCI-H23 = tested on: NCI-H23
BT-549 = tested on: BT-549
UACC-62 = tested on: UACC-62
SR = tested on: SR
HCT-116 = tested on: HCT-116
TK-10 = tested on: TK-10
SNB-75 = tested on: SNB-75
DU-145 = tested on: DU-145
PC-3 = tested on: PC-3
CAKI-1 = tested on: CAKI-1
RPMI-8226 = tested on: RPMI-8226
U-251 = tested on: U-251
LOX IMVI = tested on: LOX IMVI

Measured: GI50

COc1cc(CCN)c(OC)c(OC)c1
inactive: K562 62.1 µM | 786-0 > 100 µM | SF-268 > 100 µM | SF-295 > 100 µM | SNB-19 > 100 µM | MDA-N 39.2 µM | NCI-H23 > 100 µM | BT-549 > 100 µM | UACC-62 > 100 µM | SR 50.8 µM | HCT-116 44.4 µM | TK-10 > 100 µM | SNB-75 > 100 µM | DU-145 > 100 µM | PC-3 > 100 µM | CAKI-1 > 100 µM | RPMI-8226 93.3 µM | U-251 > 100 µM | LOX IMVI > 100 µM

CN(C)CCn1c(=O)c2ccc(NCCN3CCNCC3)c3c(=O)c4ccccc4n(c1=O)c23
inactive: SF-268 1.13 µM | SNB-19 2.94 µM | MDA-N 3.68 µM | NCI-H23 2.3 µM | BT-549 7.33 µM | UACC-62 3.47 µM | TK-10 4.86 µM | SNB-75 2.13 µM | DU-145 3.39 µM | PC-3 1.79 µM | CAKI-1 2.04 µM | LOX IMVI 1.69 µM
active: K562 0.231 µM | 786-0 0.358 µM | SF-295 1.02 µM | SR 0.0776 µM | HCT-116 0.692 µM | RPMI-8226 0.251 µM | U-251 1.11 µM

CO/N=[N+](\[O-])NC(C)C
inactive: K562 > 100 µM | 786-0 > 100 µM | SF-268 > 100 µM | SF-295 > 100 µM | SNB-19 > 100 µM | MDA-N > 100 µM | NCI-H23 > 100 µM | BT-549 > 100 µM | UACC-62 > 100 µM | SR > 100 µM | HCT-116 > 100 µM | TK-10 > 100 µM | SNB-75 > 100 µM | DU-145 > 100 µM | PC-3 > 100 µM | CAKI-1 > 100 µM | RPMI-8226 > 100 µM | U-251 > 100 µM | LOX IMVI > 100 µM

CCOC(=O)C(NC(=O)c1ccccc1)(Nc1ccc(S(=O)(=O)Nc2ncccn2)cc1)C(F)(F)F (stereo not drawn)
inactive: K562 > 100 µM | 786-0 > 100 µM | SF-268 > 100 µM | SF-295 > 100 µM | SNB-19 > 100 µM | MDA-N > 100 µM | NCI-H23 > 100 µM | BT-549 > 100 µM | UACC-62 > 100 µM | SR > 100 µM | HCT-116 > 100 µM | TK-10 > 100 µM | SNB-75 > 100 µM | DU-145 > 100 µM | PC-3 > 100 µM | CAKI-1 > 100 µM | RPMI-8226 > 100 µM | U-251 > 100 µM | LOX IMVI > 100 µM

COC1=C(Cl)C(=O)c2c(O)ccc(O)c2C1=O
active: K562 0.826 µM | 786-0 0.287 µM | UACC-62 1.07 µM | SR 0.227 µM | HCT-116 0.536 µM | TK-10 1.05 µM | CAKI-1 0.541 µM | RPMI-8226 0.272 µM
inactive: SF-268 2.43 µM | SF-295 6.43 µM | SNB-19 5.98 µM | MDA-N 2.2 µM | NCI-H23 1.91 µM | BT-549 1.82 µM | SNB-75 4.88 µM | DU-145 2.38 µM | PC-3 3.07 µM | U-251 3.53 µM | LOX IMVI 1.38 µM

O=C1/C(=C\c2ccc(-c3ccc(Cl)cc3Cl)o2)SC2NC(COc3ccc(Cl)cc3)=NN12 (stereo not drawn)
inactive: K562 48.9 µM | 786-0 51.2 µM | SF-268 36 µM | SF-295 45.3 µM | SNB-19 53.7 µM | MDA-N 44.2 µM | NCI-H23 53.2 µM | BT-549 47 µM | UACC-62 34 µM | SR 33.3 µM | HCT-116 48.4 µM | TK-10 2.96 µM | SNB-75 > 100 µM | DU-145 65.6 µM | PC-3 64.7 µM | CAKI-1 51.1 µM | RPMI-8226 38.4 µM | U-251 21.4 µM | LOX IMVI 52.1 µM

COc1ccc(-c2cc(C3CC3)nc(SCC(=O)O)c2C#N)cc1
inactive: K562 64.3 µM | 786-0 > 100 µM | SF-268 > 100 µM | SF-295 60.3 µM | SNB-19 > 100 µM | MDA-N > 100 µM | NCI-H23 > 100 µM | BT-549 > 100 µM | UACC-62 > 100 µM | SR 55.8 µM | HCT-116 > 100 µM | TK-10 > 100 µM | SNB-75 > 100 µM | DU-145 85.3 µM | PC-3 79.8 µM | CAKI-1 > 100 µM | RPMI-8226 35.6 µM | U-251 58.9 µM | LOX IMVI 36.6 µM
